Among the data in US9271960B2, “Tetrahydrocarbazoles as active agents for inhibiting VEGF production by translational control” (PTC Therapeutics, Inc., priority 2004, dated 2016) are EC50 values, retold here.

The subject of this assay is VEGF. As to the kind of experiment: Hypoxia-inducible endogenous VEGF expression ELISA in HeLa cells. The format is cell-based. The note with it: Homo sapiens, HeLa, VEGF protein by ELISA. As to the method:
The ability of compounds of the invention to modulate hypoxia-inducible endogenous VEGF expression is analyzed as follows. VEGF protein levels are monitored by an ELISA assay (R&D Systems). Briefly, HeLa cells are cultured for 24-48 hours under hypoxic conditions (1% O2, 5% CO2, balanced with nitrogen) in the presence or absence of a compound of the invention. The conditioned media is then assayed by ELISA, and the concentration of VEGF is calculated from the standard ELISA curve of each assay.
A dose-response analysis is performed using the ELISA assay and conditions described above. A series of different concentrations (e.g., seven) are analyzed. In parallel, a dose-response cytotoxicity assay is performed using Cell Titer Glo (Promega) under the same conditions as the ELISA to ensure that the inhibition of VEGF expression is not due to cytotoxicity. Dose-response curves are plotted using percentage inhibition versus concentration of the compound, and EC50 and CC50 values are generated for each compound with the maximal inhibition set as 100% and the minimal inhibition as 0%.
Compounds 156-188 in Table 1 are commercially available. In Table 1, each of the represented compounds is followed by one to five stars.
For orientation: An ELISA detects its analyte on a solid surface through an enzyme-linked reagent.

The mark [1] stands for this setting: compounds 1-155, hypoxic conditions (1% O2), read-out: ELISA Activity.
[2] abbreviates: purchased compounds 156-188, hypoxic conditions, read-out: ELISA Activity.
Where [3] appears, read: purchased compounds 156-188, hypoxic conditions, read-out: ELISA EC50.
The mark [4] stands for this setting: compounds 191-239, hypoxic conditions, read-out: ELISA Activity EC50.

The structures appear in SMILES notation. Read-outs that look alike come from different tables or passages of the source.

As for `N#Cc1ccc2[nH]c3c(c2c1)CCCC3n1cccc1` (stereo not drawn) [Compound 59, 8-Pyrrol-1-yl-6,7,8,9-tetrahydro-5H-carbazole-3-carbonitrile], the EC50 under setting [1] lay in the range of 200 to 1000 nM.

Consider `Brc1ccc2oc3c(c2c1)CCCC3Nc1ccccc1` (stereo not drawn) [Compound 107, (8-Bromo-1,2,3,4-tetrahydro-dibenzofuran-4-yl)-phenyl-amine], for which the EC50 under setting [1] was greater than 1000 nM.

Take `O=C(O)c1ccn(C2CCCc3c2[nH]c2ccc(Br)cc32)c1` (stereo not drawn) [Compound 113, 1-(6-Bromo-2,3,4,9-tetrahydro-1H-carbazol-1-yl)-1H-pyrrole-3-carboxylic acid]: the EC50 under setting [1] is greater than 1000 nM.

For the compound `Brc1ccc2[nH]c3c(c2c1)CCc1cnoc1-3` [Compound 78, 7-Bromo-4,10-dihydro-5H-1-oxa-2,10-diaza-cyclopenta[a]fluorine], the EC50 under setting [1] is greater than 1000 nM.

For the compound `COc1ccc(Oc2ccc3c(c2)c2c4n3CCNC4CCC2)cc1` (stereo not drawn) [Compound 187, 8-(4-Methoxy-phenoxy)-2,3,3a,4,5,6-hexahydro-1H-pyrazino[3,2,1-jk]carbazole methanesulfonic acid], the EC50 is greater than 1000 nM under setting [2] and 18000 nM under setting [3].

Take `O=C(NC1CCCc2c1[nH]c1ccc(Br)cc21)c1ccc(F)cc1F` (stereo not drawn) [Compound 133, N-(6-Bromo-2,3,4,9-tetrahydro-1H-carbazol-1-yl)-2,4-difluoro-benzamide]: under setting [1], the EC50 was less than 10 nM.

`O=C1c2ccccc2C(=O)N1C1CCCc2c1[nH]c1ccc(Br)cc21` (stereo not drawn) [Compound 41, 2-(6-Bromo-2,3,4,9-tetrahydro-1H-carbazol-1-yl)-isoindole-1,3-dione]: the EC50 under setting [1] is 40 to 200 nM.

`OCC(O)COc1ccc(C2CCCc3c2[nH]c2ccc(Cl)cc32)cc1` (stereo not drawn) [Compound 213]: the EC50 under setting [4] lay within 10 to 40 nM.

Turning to `CC(=O)Nc1ccc(CN2CCCn3c4c(c5cc(C)ccc53)CCCC42)cc1` (stereo not drawn) [Compound 181, N-[4-(11-Methyl-1,2,3,3a,6,7-hexahydro-5H-[1,4]diazepino[3,2,1-jk]carbazol-4-ylmethyl)-phenyl]-acetamide], the EC50 runs as follows: under setting [2], greater than 1000 nM; under setting [3], greater than 10000 nM.

Consider `Brc1ccc2[nH]c3c(c2c1)CCCC3NCCN1CCOCC1` (stereo not drawn) [Compound 122, (6-Bromo-2,3,4,9-tetrahydro-1H-carbazol-1-yl)-(2-morpholin-4-yl-ethyl)-amine], for which, under setting [1], the EC50 is greater than 1000 nM.

With `CC(=O)N1CCN(CCCOc2ccc(C3CCCc4c3[nH]c3ccc(Br)cc43)cc2)CC1` (stereo not drawn) [Compound 204], the EC50 under setting [4] is 10 to 40 nM.

Take `O=C(Nc1ccccc1)NC1CCCc2c1[nH]c1ccc(Br)cc21` (stereo not drawn) [Compound 81, 1-(6-Bromo-2,3,4,9-tetrahydro-1H-carbazol 1-yl)-3-phenyl-urea]: the EC50 under setting [1] was greater than 1000 nM.

For `O=C1c2ccccc2CN1C1CCCc2c1[nH]c1ccc(Br)cc21` (stereo not drawn) [Compound 25, 2-(6-Bromo-2,3,4,9-tetrahydro-1H-carbazol-1-yl)-2,3-dihydro-isoindol-1-one], under setting [1], the EC50 lay in the range of 10 to 40 nM.

Consider `Cc1cc(C(=O)NC2CCCc3c2[nH]c2ccc(Br)cc32)no1` (stereo not drawn) [Compound 151, 5-Methyl-isoxazole-3-carboxylic acid (6-bromo-2,3,4,9-tetrahydro-1H-carbazol-1-yl)-amide], for which the EC50 under setting [1] is 10 to 40 nM.

In the case of `O/N=C1\CCCc2c1[nH]c1cc(Br)ccc21` [Compound 92, 7-Bromo-2,3,4,9-tetrahydro-carbazol-1-one oxime], the EC50 under setting [1] was greater than 1000 nM.

As for `FC(F)(F)c1ccc(NC2CCCc3c2[nH]c2ccc(C(F)(F)F)cc32)cc1` (stereo not drawn) [Compound 140, (4-Trifluoromethyl-phenyl)-(6-trifluoromethyl-2,3,4,9-tetrahydro-1H-carbazol-1-yl)-amine], the EC50 under setting [1] lay within 10 to 40 nM.

On to `Fc1cccc(NC2CCCc3c2[nH]c2ccc(Br)cc32)c1F` (stereo not drawn) [Compound 32, (6-Bromo-2,3,4,9-tetrahydro-1H-carbazol-1-yl)-(2,3-difluoro-phenyl)-amine], for which the EC50 under setting [1] fell in the range of 10 to 40 nM.

With `Cc1ccc2[nH]c3c(c2c1)CCCC3NCC12CC3CC(CC(C3)C1)C2` (stereo not drawn) [Compound 159, Adamantan-1-ylmethyl-(6-methyl-2,3,4,9-tetrahydro-1H-carbazol-1-yl)-amine], the EC50 was 200 to 1000 nM under setting [2] and 360 nM under setting [3].
